Read-outs that look alike come from different tables or passages of the source.
Assays:
[1] = system: L1210 cells; test: Cytotoxicity (cell growth, MTT) in L1210 cells; format: cell-based, mouse; details: Mus musculus, read-out: L1210 IC50
Description: (§1) In terms of Table 1, L1210 cells are mouse leukemia cells and are the gold standard in terms of evaluating polyamine cytotoxicity data due to a plethora of prior data in this cell line for other polyamine structures. Clearly 7a was similar in all respects to 4a (Table 1). […] The lower the Ki value, the higher the affinity of the drug for the polyamine transporter (PAT) on the cell surface. Chinese hamster ovary (CHO) cells and a mutant line without an active PAT (CHO-MG) also evaluated the PAT selectivity of these drugs.
Biological Evaluation. Once synthesized, the conjugates were screened for cytotoxicity in L1210, CHO and CHO-MG cells. L1210 (mouse leukemia) cells were selected to enable comparisons with the published IC50 and Ki values for a variety of polyamine substrates. Chinese Hamster Ovary (CHO) cells were chosen along with a mutant PAT deficient cell line (CHO-MG) in order to comment on selective transport via the PAT (Wang et al, J. Med. Chem. 2003, 46, 2663-2671; Wang et al, J. Med. Chem. 2003, 46, 2672-2682; Wang et al., J. Med. Chem. 2003, 46, 5129-5138; Delcros et al., J. Med. Chem., 2002, 45, 5098-5111).
(§2) L1210 IC50 and Ki studies. […] The Ki values in Table 3 were determined for [^14C]spermidine uptake and reflect the affinity of the polyamine derivative for the polyamine transporter on the cell surface. With both parameters, one can determine whether high affinity for the transporter (e.g., low Ki value) translated into high cytotoxicity (e.g., low IC50 value), etc.
(§3) Biological studies. Murine leukemia cells (L1210), CHO and CHO-MG cells were grown in RPMI medium supplemented with 10% fetal calf serum, glutamine (2 mM), penicillin (100 U/mL), streptomycin (50 μg/mL). L-Proline (2 μg/mL) was added to the culture medium for CHO-MG cells. Cells were grown at 37° C. under a humidified 5% CO2 atmosphere. Aminoguanidine (AG, 2 mM) was added to the culture medium to prevent oxidation of the drugs by the enzyme (bovine serum amine oxidase) present in calf serum. Trypan blue staining was used to determine cell viability before the initiation of a cytotoxicity experiment. Cells in early to mid log-phase were used. IC50 determinations. Cell growth was assayed in sterile 96-well microtiter plates (Becton-Dickinson, Oxnard, Calif., USA). L1210 cells were seeded at 5e^4 cells/mL of medium (100 μL/well). CHO and CHO-MG cells were plated at 2e^3 cells/mL. Drug solutions (10 μL per well) of appropriate concentration were added at the time of seeding for L1210 cells and after an overnight incubation for the CHO cell lines. After exposure to the drug for 48 hr, cell growth was determined by measuring formazan formation from 3-(4,5-dimethylthiazol-2-yl)2,5-diphenyltetrazolium using a Titertek Multiskan MCC/340 microplate reader for absorbance (540 nm) measurements (Mosmann, T., J. Immunol. Methods 1983, 65, 55-63).

[2] = system: polyamine transporter (PAT); test: Ki for inhibition of [14C]spermidine uptake in L1210 cells; format: cell-based, mouse
Description: as §1, §2
Ki procedure. The ability of the conjugates to interact with the polyamine transport system was determined by measuring competition by the conjugates against radiolabeled spermidine uptake in L1210 cells. Initially, the Km value of spermidine transport was determined as previously described (Clément et al., Biochem. J. 1995, 312, 933-938). The ability of conjugates to compete for [^14C]spermidine uptake were determined in L1210 cells by a 10-min uptake assay in the presence of increasing concentrations of competitor, using 1 μM [^14C]spermidine as substrate. Ki values for inhibition of spermidine uptake were determined using the Cheng-Prusoff equation (Cheng and Prusoff, Biochem. Pharmacol. 1973, 22, 3099-3108) from the IC50 value derived by iterative curve fitting of the sigmoidal equation describing the velocity of spermidine uptake in the presence of the respective competitor (Torossian et al., Biochem. J., 1996, 319, 21-26). L1210 cells were grown and maintained according to established procedures (Bergeron et al., J. Med. Chem. 2000, 43, 224-235) and were washed twice in HBSS prior to the transport assay.

[3] = system: CHO-MG cells; test: Cytotoxicity in PAT-deficient CHO-MG cells; format: cell-based, Chinese hamster; details: Cricetulus griseus, CHO-MG
Description: as §1
CHO and CHO-MG studies. Chinese hamster ovary (CHO) cells were chosen along with a mutant cell line (CHO-MG) in order to comment on how the synthetic conjugates gain access to cells. The CHO-MG cell line is polyamine-transport deficient and was isolated after selection for growth resistance to methylglyoxalbis(guanylhydrazone), MGBG, (CH3C[═N—NHC(═NH)NH2]CH[═N—NHC(═NH)NH2]) using a single-step selection after mutagenesis with ethylmethanesulfonate (Mandel et al., J. Cell. Physiol., 1978, 97, 335-344; Byers et al., Biochem. J. 1989, 263, 745-752).
For the purposes of this study, the CHO-MG cell line represents cells with no PAT activity and provided a model for alternative modes of entry or action, which are independent of PAT. These alternative modes of entry include passive diffusion or utilization of another transporter. The alternative modes of action may also include interactions on the outer surface of the plasma membrane or other membrane receptor interactions.
as §3, with “Aminoguanidine (AG, 2 mM) was added to the culture medium to prevent oxidation of the drugs by the enzyme (bovine serum amine oxidase) present in calf serum.” left out

[4] = target: polyamine transporter (PAT); details: data originally reported in Ref; read-out: L1210 Ki value; cited from earlier work
[5] = system: CHO cells; details: data originally reported in Ref; cited from earlier work

Row | Compound | IC50 ([1]; L1210, 48 h incubation, new data) [µM] | Ki ([2]; new data, read-out: L1210 Ki value) [µM] | IC50 ([3]; 48 h incubation, new data, read-out: CHO-MG IC50) [µM] | IC50 ([1]; L1210, in the presence of AG, 48 h at 37° C.) [µM] | IC50 ([1]; L1210 experiments, no added SPD) [µM] | Ki ([2]; [14C]spermidine uptake, 10-min, 1 μM substrate, read-out: L1210 Ki values) [µM] | IC50 ([3]; absence of AG, 48 h, read-out: CHO-MG IC50 w/o AG) [µM] | IC50 ([3]; in the presence of AG, 48 h at 37° C., read-out: CHO-MG IC50) [µM] | Ki [4] [µM] | IC50 Ratio (CHO-MG/CHO), a measure of PAT selectivity [5]
1 | CCN(CCCNCCCN)Cc1c2ccccc2cc2ccccc12 [Compound 7a, N-(3-Amino-propyl)-N′-anthracen-9-ylmethyl-N′-ethyl-propane-1,3-diamine] | 2.2 | 23.5 | 4 | – | – | – | – | – | – | –
2 | NCCCCNCCCCNCc1c2ccccc2cc2ccccc12 [Compound 6b] | – | – | – | 0.3 | 0.3 | 1.8 | 7.05 | 66.7 | 1.8 | 148

Source: patent US20090069441A1, “Motuporamine Mimic Agents” (priority 2006, published 2009)
